Experimental data reported in US11845935B2, “Regulation of MIR-143 using nucleic acid molecules” (CHILDREN'S HOSPITAL MEDICAL CENTER, priority 2017, dated 2023).

Tests used:
M6PR [1] = target: T1, M6PR (Homo sapiens, UniProt P11717); assay: M6P competition of IDUA-myc uptake in HUVEC; assay type: cell-based
T1 construct: endogenous in cells; host or cells: HUVEC (parental, or transduced with LV-143Spg / control LV)

M6PR [2] = target: T1, M6PR; assay: M6P competition of IDUA-myc uptake in hCMEC/D3 cells; assay type: cell-based; settings: 1 h exposure to IDUA-myc conditioned medium (~20,000 U/mL), read-out: Median inhibitory concentration (IC50) of IDUA-myc uptake

T1 sequence (P11717 41-2491): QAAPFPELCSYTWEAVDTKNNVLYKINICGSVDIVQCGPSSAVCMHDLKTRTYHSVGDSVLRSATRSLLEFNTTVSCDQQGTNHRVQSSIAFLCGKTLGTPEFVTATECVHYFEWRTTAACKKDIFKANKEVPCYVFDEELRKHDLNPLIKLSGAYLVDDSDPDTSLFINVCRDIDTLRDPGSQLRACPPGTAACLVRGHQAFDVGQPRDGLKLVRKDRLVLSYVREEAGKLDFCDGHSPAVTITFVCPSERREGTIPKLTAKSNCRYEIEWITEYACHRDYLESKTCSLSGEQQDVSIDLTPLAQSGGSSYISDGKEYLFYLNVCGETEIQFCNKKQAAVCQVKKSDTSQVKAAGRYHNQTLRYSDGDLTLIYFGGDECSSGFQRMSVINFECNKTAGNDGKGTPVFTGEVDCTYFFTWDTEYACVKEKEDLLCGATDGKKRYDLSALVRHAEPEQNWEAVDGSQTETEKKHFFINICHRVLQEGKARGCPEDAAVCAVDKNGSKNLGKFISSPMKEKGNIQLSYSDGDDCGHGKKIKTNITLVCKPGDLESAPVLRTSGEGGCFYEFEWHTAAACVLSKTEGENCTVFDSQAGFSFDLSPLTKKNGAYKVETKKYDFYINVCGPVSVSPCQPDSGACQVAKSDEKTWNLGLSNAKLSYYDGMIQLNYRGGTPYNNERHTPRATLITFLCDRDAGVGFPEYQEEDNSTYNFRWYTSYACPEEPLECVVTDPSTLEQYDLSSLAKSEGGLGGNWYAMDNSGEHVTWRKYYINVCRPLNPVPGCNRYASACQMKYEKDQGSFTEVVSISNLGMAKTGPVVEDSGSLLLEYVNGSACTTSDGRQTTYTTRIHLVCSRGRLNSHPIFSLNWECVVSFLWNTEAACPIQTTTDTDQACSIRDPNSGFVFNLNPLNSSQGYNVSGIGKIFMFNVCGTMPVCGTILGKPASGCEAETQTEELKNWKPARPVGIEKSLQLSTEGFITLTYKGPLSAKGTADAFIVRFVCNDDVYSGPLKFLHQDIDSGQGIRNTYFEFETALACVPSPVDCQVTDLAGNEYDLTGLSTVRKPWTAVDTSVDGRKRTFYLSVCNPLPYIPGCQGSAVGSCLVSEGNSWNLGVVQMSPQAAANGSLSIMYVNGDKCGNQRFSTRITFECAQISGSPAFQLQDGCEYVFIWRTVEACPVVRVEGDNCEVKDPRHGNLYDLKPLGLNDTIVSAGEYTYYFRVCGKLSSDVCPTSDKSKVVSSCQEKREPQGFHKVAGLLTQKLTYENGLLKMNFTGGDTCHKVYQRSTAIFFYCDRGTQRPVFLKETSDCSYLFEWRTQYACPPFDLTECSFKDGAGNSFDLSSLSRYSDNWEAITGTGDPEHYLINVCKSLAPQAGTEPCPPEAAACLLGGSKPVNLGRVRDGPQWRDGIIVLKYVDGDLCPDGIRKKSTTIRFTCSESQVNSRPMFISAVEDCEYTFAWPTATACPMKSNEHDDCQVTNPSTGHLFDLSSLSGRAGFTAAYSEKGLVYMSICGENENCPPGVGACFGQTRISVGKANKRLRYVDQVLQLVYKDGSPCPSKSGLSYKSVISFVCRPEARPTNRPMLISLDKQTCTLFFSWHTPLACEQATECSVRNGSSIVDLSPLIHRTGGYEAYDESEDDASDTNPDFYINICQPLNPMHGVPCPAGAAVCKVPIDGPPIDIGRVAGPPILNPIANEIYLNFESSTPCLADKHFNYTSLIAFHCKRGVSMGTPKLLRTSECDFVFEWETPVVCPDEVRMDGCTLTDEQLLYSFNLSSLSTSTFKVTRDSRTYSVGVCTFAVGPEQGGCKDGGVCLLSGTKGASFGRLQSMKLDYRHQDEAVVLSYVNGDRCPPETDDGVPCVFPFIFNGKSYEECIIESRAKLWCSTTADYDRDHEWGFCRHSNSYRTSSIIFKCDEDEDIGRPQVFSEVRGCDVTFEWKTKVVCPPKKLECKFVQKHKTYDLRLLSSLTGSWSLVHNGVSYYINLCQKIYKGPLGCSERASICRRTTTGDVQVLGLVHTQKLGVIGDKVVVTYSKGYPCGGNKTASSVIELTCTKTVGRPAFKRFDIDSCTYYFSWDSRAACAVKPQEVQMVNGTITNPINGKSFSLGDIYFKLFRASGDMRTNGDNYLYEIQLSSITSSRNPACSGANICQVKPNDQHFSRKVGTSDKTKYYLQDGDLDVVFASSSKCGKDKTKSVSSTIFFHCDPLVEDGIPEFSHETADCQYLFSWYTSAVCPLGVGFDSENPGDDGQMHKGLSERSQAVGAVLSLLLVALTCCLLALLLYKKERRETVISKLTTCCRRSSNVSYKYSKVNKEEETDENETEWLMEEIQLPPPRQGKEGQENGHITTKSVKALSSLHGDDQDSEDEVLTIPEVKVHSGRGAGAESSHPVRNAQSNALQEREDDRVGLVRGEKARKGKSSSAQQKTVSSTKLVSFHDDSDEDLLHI

O=C[C@@H](O)[C@@H](O)[C@H](O)[C@H](O)COP(=O)(O)O [M6P inhibitor, mannose 6-phosphate]
IC50 (M6PR [1]; 1 h exposure to IDUA-myc conditioned medium (~20,000 U/mL), read-out: Median inhibitory concentration (IC50) of IDUA-myc uptake): 347 µM
M6PR-independent uptake (plateau) (M6PR [1]; residual uptake under M6P competition): ~18%
IC50 (M6PR [2]): 57.2 µM
